Results on one compound are retold here after patent publication US20190133998A1, “TREATMENT OF TUMORS WITH INHIBITORS OF CXCL12 SIGNALING AND SUBT[…] OF CHEMOTHERAPEUTIC AGENTS” (THE GENERAL HOSPITAL CORPORATION, priority 2016, published 2019).

Where “and” joins values, the source holds several entries; their conditions need not be identical. Equal entries are not always repeated. Where two headings read alike, the source gives them in different places.

The subject of assay [1] is ID8 cells. As to the kind of experiment: Soft-agar colony formation, ID8. The format is cell-based, murine. As to the method: (§1) ID8 and TOV Colony Formation in The Presence of Small Molecules and/or Chemotherapy: Bottom Layer Hard Agar: 2×DMEM and 0.8% agar stock was prepared and adjusted to 42° C. in a water bath for 30 min. The agar and 2×DMEM were mixed (1:2). 500 μL of the mixture was then added to each well of a 24 well plate, and the plate was rocked to distribute evenly and allowed to solidify at room temperature in a tissue culture hood. Upper Layer Soft Agar: 0.6% agar stock was prepared adjusted to 42° C. in a water bath for 30 min. During this time, ID8 cells were trypsinized, and 40,000 cells per mL suspension in 1×DMEM was made. Cell suspensions were then mixed with soft agar stock (1:2) and 500 μL of the mixture was then added to each well. Each condition was in triplicate.
Drug-DMEM stocks were made to achieve the proper concentrations in 1.1 mL, the total volume of each well: AMD3100 (10 μM and 1 μM for ID8 cells, 5 μM and 2.5 μM for TOV cells) and TAXOL (0.015 μM and 0.005 μM). 100 μL of each drug was added to the relative wells in triplicate. Plates were then incubated in a humidified incubator with […] for 20-30 days. At the end of the experiment, each well was stained with 0.005% crystal violet in 15% ethanol (140 μL per well) and plates were incubated again for several hours then photos were taken using a microscope. ID8 Colonies equal or bigger […] and TOV colonies equal or bigger than […] were counted using Image J software.

For assay [2], the system named is TOV-112D human ovarian cancer cells. As to the kind of experiment: cells. As to the method: (§2) Drug Titrations: TAXOL was titered to determine the concentrations used in combination with AMD3100. Cells were cultured in 96-well black assay plates with optically clear bottoms (500 and 2500 cells per well were tested), including a standard curve plate. ID8 cells were then exposed to increasing concentrations of paclitaxel (1, 0.5, 0.15, 0.05, 0.015, and 0.005 μM), and TOV cells were exposed to 15, 5, and 1 nM Taxol for 48 or 96 hr. Proliferation was measured by measuring the amount of dsDNA using CyQuant reagent and read on a Perkin Elmer Envision 2103. AMD3100 (50, 25, 10, 5, 2.5, and 1 μM) was titered in the same manner. Each condition was done in triplicate. Drugs were not replenished during any of the experiments. Data was analyzed in Prism 7.
Simultaneous Delivery of Small Molecules and Chemotherapy: To determine the effect of AMD3100 alone or in combination with TAXOL, cell proliferation was measured by seeding 2500 TOV cells and 500 ID8 cell per well in a clear bottom 96-well black assay plates. AMD3100 (final concentrations: 10 μM for ID8 and 2.5 μM for TOV) and Paclitaxel (final concentrations: 15 and 5 nM for ID8 cells and 5 and 1 nM for TOV cells) were mixed with DMEM. 100 μL of the mixture was added to the cells. Each condition was done in triplicate. […] Standard curve plates were washed the same day the experiment was done. Plates were stored at −80° C. after washing and proliferation rate was measured then by CyQuant assay.

For assay [3], the system named is TOV-112D cells. To be noted: control media, then TAXOL 1 nM 96 hr. As to the method: (§3) Sequential Delivery of Small Molecules and Chemotherapy: ID8 cells were exposed to AMD3100 in a 6 well plate (2.5×10^5 cells/well) for 72 hr. Cells were then washed and counted. Cell viability was checked by propidium iodide. For each condition, 500 cells per well of viable ID8 cells were then seeded into a 96 well black assay plate. ID8 cells were then incubated in DMEM containing a carrier, AMD3100 10 μM, TAXOL 0.005 μM, or both for another 72 hr. For TOV-112D cells, initial 72 hr incubation was with AMD3100 5 μM, followed by 96 hr incubation in media containing AMD3100 5 μM, TAXOL 1 nM, or both. At the conclusion of the experiment, plates were washed and dsDNA was measured via CyQuant assay.

Assay [4] deals with ID8 cells. To be noted: ID8, no AMD3100 pre-treatment, re-plated in TAXOL 0.005 μM 72 hr. Here is the method: as §3
Assay [5] relates to ID8 murine ovarian cancer cells. The experiment in a line: cells. The settings on record: Mus musculus. Here is the method:
as §2
Simultaneous Delivery of Small Molecules and Chemotherapy: To determine the effect of AMD3100 alone or in combination with TAXOL, cell proliferation was measured by seeding 2500 TOV cells and 500 ID8 cell per well in a clear bottom 96-well black assay plates. AMD3100 (final concentrations: 10 μM for ID8 and 2.5 μM for TOV) and Paclitaxel (final concentrations: 15 and 5 nM for ID8 cells and 5 and 1 nM for TOV cells) were mixed with DMEM. 100 μL of the mixture was added to the cells. Each condition was done in triplicate. Plates were incubated at 37° C. with 5% CO2 for 72 hr (ID8) and 96 hr (TOV-112D). Standard curve plates were washed the same day the experiment was done. Plates were stored at −80° C. after washing and proliferation rate was measured then by CyQuant assay.

Assay [6] concerns TOV-112D cells. The experiment in a line: Soft-agar colony formation, TOV-112D. The format is cell-based, human. Here is the method: as §1
[…] 100 μL of each drug was added to the relative wells in triplicate. Plates were then incubated in a humidified incubator with […] for 20-30 days. At the end of the experiment, each well was stained with 0.005% crystal violet in 15% ethanol (140 μL per well) and plates were incubated again for several hours then photos were taken using a microscope. ID8 Colonies equal or bigger […] and TOV colonies equal or bigger than […] were counted using Image J software.

Another assay concerns human ovarian cancer. To be noted: reported; read-out: IC50 of paclitaxel in human ovarian cancer; cited from earlier work.

For the compound `CC(=O)O[C@H]1C(=O)[C@@]2(C)[C@H]([C@H](OC(=O)c3ccccc3)[C@]3(O)C[C@H](OC(=O)[C@H](O)[C@@H](NC(=O)c4ccccc4)c4ccccc4)C(C)=C1C3(C)C)[C@]1(OC(C)=O)CO[C@@H]1C[C@@H]2O` [TAXOL, Paclitaxel], the “reduced ID8 colony formation by” value in the assay on ID8 cells [1] (TAXOL 5 nM) was 56% and 57%; with ID8 cells [1] (TAXOL 15 nM) it was 94%. The IC50 in assay [2] (Homo sapiens, TOV112D, read-out: IC50, human ovarian cancer cells (TOV)) was 2.5 nM; in assay [5] (ID8, 72 h, read-out: IC50, ID8 cell proliferation), 5 nM; in assay [5] (read-out: IC50, ID8 murine ovarian cancer cells) it was 5 nM; in the assay with human ovarian cancer, no more than 3000 nM. The inhibition at 0.005 µM stood at 89% in assay [2] (Homo sapiens, TOV112D, read-out: proliferation inhibition) and 50% in assay [5] (ID8, read-out: proliferation inhibition). Besides, the “TOV-112D cell proliferation inhibition” value in assay [2] (TAXOL 1 nM, after 72 hours) is “did not significantly inhibit”. Moreover, the “proliferation reduced by” value with TOV-112D cells [3] was 24%. Further, in the assay on ID8 cells [4], the “cell proliferation reduced by” value was found to be 50%. For the same compound, in the assay with TOV-112D cells [6] (TAXOL 5 nM), the TOV-112D colony formation entry is given as “completely preventing”. The “reduced colony formation by” value in the assay with TOV-112D cells [6] (TOV-112D, TAXOL 1 nM alone, non-significant) is given as 20%.
